What was measured:
Format in all cases: biochemical
PKC theta [1] = molecular target: T1, PKC theta (Homo sapiens, UniProt Q04759); assay: PKC Theta II 33P radiometric kinase assay; details: 0.5 nM PKC theta, 240 μM ATP, [γ-33P] ATP, 25° C., compound range 0-0.25 μM
Experimental: An assay buffer solution was prepared which consisted of 100 mM HEPES (pH 7.5), 10 mM MgCl2, 25 mM NaCl, 0.1 mM EDTA and 0.01% Brij. An enzyme buffer containing reagents to final assay concentrations of 0.002% Triton X-100, 200 μg/mL Phosphatidylserine, 20 μg/mL Diacylglycerol, 2 mM DTT, 150 μM substrate peptide ([…]) and 0.5 nM PKC theta kinase was prepared in assay buffer. To 22 μL of this enzyme buffer, in a 96 well plate, was added 2 μL of VRT stock solution in DMSO. The mixture was allowed to equilibrate for 10 mins at 25° C. […] ATP.
The reaction was stopped after 60 minutes by the addition of 100 μL 100 mM phosphoric acid. A phosphocellulose 96 well plate (Millipore, Cat no. MAPHNOB) was washed with […] 100 mM phosphoric acid prior to the addition of the reaction mixture (120 μL) and was left to soak for at least 30 minutes, prior to wash steps (4×200 μL 100 mM phosphoric acid). After drying, 100 μL Optiphase ‘SuperMix’ liquid scintillation cocktail (Perkin Elmer) was added to the well prior to scintillation counting (1450 Microbeta Liquid Scintillation Counter, Wallac).
For each Ki determination, 11 data points covering the VRT concentration range of 0-0.25 μM were obtained in duplicate (DMSO stocks were prepared from an initial 10 mM VRT stock with subsequent 1:2 serial dilutions). Ki values were calculated from initial rate data by non-linear regression using the Prism software package (Prism 4.0a, Graphpad Software, San Diego, Calif.).

PKC delta kinase = PKC delta kinase (Homo sapiens, UniProt Q05655); assay: PKC Delta coupled-enzyme kinase assay; details: 46 nM PKC delta, 150 μM ATP, 30° C.; read-out: Ki PKC delta
Chain of PKC delta kinase (Q05655 whole entry): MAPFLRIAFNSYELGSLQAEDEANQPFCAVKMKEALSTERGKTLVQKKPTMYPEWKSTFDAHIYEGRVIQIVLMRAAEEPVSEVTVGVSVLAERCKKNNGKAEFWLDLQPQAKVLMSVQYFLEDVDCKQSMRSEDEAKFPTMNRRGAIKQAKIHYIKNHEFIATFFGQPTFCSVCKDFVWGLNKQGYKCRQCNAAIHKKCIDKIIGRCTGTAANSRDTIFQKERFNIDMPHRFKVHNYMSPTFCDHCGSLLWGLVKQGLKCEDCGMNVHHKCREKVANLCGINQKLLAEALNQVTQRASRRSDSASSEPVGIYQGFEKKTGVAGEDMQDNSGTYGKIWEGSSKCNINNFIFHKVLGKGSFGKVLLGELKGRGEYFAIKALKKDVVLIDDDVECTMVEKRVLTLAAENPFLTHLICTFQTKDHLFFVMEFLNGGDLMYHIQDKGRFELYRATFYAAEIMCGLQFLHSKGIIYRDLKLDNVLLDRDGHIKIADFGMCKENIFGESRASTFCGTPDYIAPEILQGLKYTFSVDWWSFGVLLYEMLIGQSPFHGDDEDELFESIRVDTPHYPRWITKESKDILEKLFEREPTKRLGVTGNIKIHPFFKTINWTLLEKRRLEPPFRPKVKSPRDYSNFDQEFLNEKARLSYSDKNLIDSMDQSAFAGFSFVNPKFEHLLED
How it was run: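 Assay buffer was 100 mM HEPES pH 7.5, 10 mM MgCl2, 25 mM NaCl, 0.1 mM EDTA, 0.01% Brij. Enzyme buffer was equilibrated with compound in DMSO for 10 min at 30 °C. Ki values were derived by non-linear regression of initial rate data.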

PKC alpha kinase = PKC alpha kinase (Homo sapiens, UniProt P17252); assay: PKC Alpha coupled-enzyme kinase assay; details: 4.5 nM PKC alpha, 130 μM ATP, 30° C.
Experimental: An assay buffer solution was prepared which consisted of 100 mM HEPES (pH 7.5), 10 mM MgCl2, 25 mM NaCl, 0.1 mM EDTA, 100 μM CaCl2 and 0.01% Brij. […] To 16 μL of this enzyme buffer, in a 384 well plate, was added 1 μL of VRT stock solution in DMSO. The mixture was allowed to equilibrate for 10 mins at 30° C. The enzyme reaction was initiated by the addition of 16 μL stock ATP solution prepared in assay buffer to a final assay concentration of 130 μM. Initial rate data was determined from the rate of change of absorbance at 340 nm (corresponding to stoichiometric consumption of NADH) using a Molecular Devices Spectramax plate reader (Sunnyvale, Calif.) over 15 mins at 30° C. For each Ki determination 12 data points covering the VRT concentration range of 0-20 μM were obtained in duplicate (DMSO stocks were prepared from an initial 10 mM VRT stock with subsequent 1:2 serial dilutions). Ki values were calculated from initial rate data by non-linear regression using the Prism software package (Prism 4.0a, Graphpad Software, San Diego, Calif.).

PKC theta [2] = molecular target: T1, PKC theta; assay: PKC Theta I coupled-enzyme (NADH absorbance) kinase assay; details: 18 nM PKC theta, 240 μM ATP, 30° C., absorbance at 340 nm
Experimental: An assay buffer solution was prepared which consisted of 100 mM HEPES (pH 7.5), 10 mM MgCl2, 25 mM NaCl, 0.1 mM EDTA and 0.01% Brij. […] To 60 μL of this enzyme buffer, in a 384 well plate, was added 2 μL of VRT stock solution in DMSO. The mixture was allowed to equilibrate for 10 mins at 30° C. […] Ki values were calculated from initial rate data by non-linear regression using the Prism software package (Prism 4.0a, Graphpad Software, San Diego, Calif.).

T1 sequence (Q04759 whole entry): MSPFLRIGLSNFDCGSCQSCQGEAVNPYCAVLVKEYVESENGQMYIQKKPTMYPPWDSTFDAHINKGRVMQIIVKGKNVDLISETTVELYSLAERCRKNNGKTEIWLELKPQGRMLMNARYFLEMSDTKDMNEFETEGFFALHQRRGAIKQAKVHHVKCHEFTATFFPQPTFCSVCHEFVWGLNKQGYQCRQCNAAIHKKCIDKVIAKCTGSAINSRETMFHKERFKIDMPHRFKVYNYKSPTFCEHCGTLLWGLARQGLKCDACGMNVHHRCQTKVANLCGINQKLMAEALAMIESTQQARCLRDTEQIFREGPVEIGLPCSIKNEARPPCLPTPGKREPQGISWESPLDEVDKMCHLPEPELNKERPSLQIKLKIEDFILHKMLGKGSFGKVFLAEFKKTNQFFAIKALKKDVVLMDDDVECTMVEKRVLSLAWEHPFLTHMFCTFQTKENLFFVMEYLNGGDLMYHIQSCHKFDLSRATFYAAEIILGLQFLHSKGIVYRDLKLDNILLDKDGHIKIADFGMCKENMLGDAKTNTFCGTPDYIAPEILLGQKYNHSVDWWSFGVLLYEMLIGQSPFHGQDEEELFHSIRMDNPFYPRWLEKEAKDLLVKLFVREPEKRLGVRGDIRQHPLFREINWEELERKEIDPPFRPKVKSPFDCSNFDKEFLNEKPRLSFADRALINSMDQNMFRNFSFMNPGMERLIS

Row | SMILES | Ki (PKC theta [1]) [nM] | Ki (PKC delta kinase) [nM] | Ki (PKC alpha kinase) [nM] | Ki (PKC theta [2]) [nM]
1 | Nc1ncc(Br)cc1C(=O)c1cccc(N2CCCNCC2)n1 [compound 14, (6-(1,4-diazepan-1-yl)pyridin-2-yl)(2-amino-5-bromopyridin-3-yl)methanone] | < 50 | 50 to 500 | < 50 | –
2 | CN1CCCN(c2cccc(C(=O)c3cc(Br)cnc3N)n2)CC1 [compound 67] | < 50 | 50 to 500 | – | –
3 | Nc1ncc(Br)cc1C(=O)c1cccc(N2CCCN(C(=O)CC(F)(F)F)CC2)n1 [compound 75, 1-(4-(6-(2-amino-5-bromonicotinoyl)pyridin-2-yl)-1,4-diazepan-1-yl)-3,3,3-trifluoropropan-1-one] | < 50 | 50 to 500 | – | –
4 | CC(C)C[C@H]1CN(c2cccc(C(=O)c3cccnc3N)n2)CCN1 [compound 193] | 50 to 500 | – | – | –
5 | Cn1cc(-c2cnc(N)c(C(=O)c3cccc(N4CCCNCC4)n3)c2)c2ccccc21 [compound 210] | 50 to 500 | – | < 50 | –
6 | Cc1cc(C(=O)c2cccnc2N)nn1C1CCCNCC1 (centres unmarked) [compound 217] | – | 500 to 2800 | > 2800 | 500 to 2800
7 | Nc1ncccc1C(=O)c1cccc(N2CCNC(Cc3cnc[nH]3)C2)n1 (centres unmarked) [compound 304] | – | 500 to 2800 | > 2800 | 500 to 2800
8 | Cc1cccc(C)c1C1CN(c2cccc(C(=O)c3cccnc3N)n2)CCN1 (centres unmarked) [compound 337] | – | > 2800 | 500 to 2800 | 500 to 2800
9 | C=Cc1ccc(N2CCN[C@@H](CC(C)C)C2)nc1C(=O)c1cccnc1N [compound 346] | 50 to 500 | – | – | –
10 | Nc1ncccc1C(=O)c1nc(N2CCNCC2)ccc1C1CC1 [compound 354] | – | 500 to 2800 | > 2800 | 500 to 2800
11 | C#Cc1ccc(N2CCN[C@@H](CC(C)C)C2)nc1C(=O)c1cccnc1N [compound 357] | 50 to 500 | – | – | –
12 | C/C=C/c1ccc(N2CCN[C@@H](CC(C)C)C2)nc1C(=O)c1cccnc1N [compound 361] | 50 to 500 | – | – | –
13 | Nc1ncccc1C(=O)c1nc(N2CCC(N)C2)ccc1C(F)(F)F (centres unmarked) [compound 369] | – | 500 to 2800 | 500 to 2800 | 500 to 2800
14 | Nc1ncccc1C(=O)c1nc(NC2CNC2)ccc1C(F)(F)F [compound 375] | – | 500 to 2800 | 500 to 2800 | 500 to 2800
15 | NCCOc1ccc(C(F)(F)F)c(C(=O)c2cccnc2N)n1 [compound 378] | – | 500 to 2800 | 500 to 2800 | 500 to 2800
16 | CNCCN(C)c1ccc(C(F)(F)F)c(C(=O)c2cccnc2N)n1 [compound 380] | – | 500 to 2800 | 500 to 2800 | 500 to 2800
17 | Nc1ncccc1C(=O)c1nc(NC2CCCNC2)ccc1C(F)(F)F (centres unmarked) [compound 381] | – | 500 to 2800 | 500 to 2800 | 500 to 2800
18 | Nc1ncccc1C(=O)c1nc(NCC2CCCCN2)ccc1C(F)(F)F (centres unmarked) [compound 382] | – | 500 to 2800 | 500 to 2800 | 500 to 2800
19 | Nc1ncccc1C(=O)c1nc(NC2CCCC(N)C2)ccc1C(F)(F)F (centres unmarked) [compound 389] | – | 500 to 2800 | 500 to 2800 | 500 to 2800
20 | Nc1ncccc1C(=O)c1cccc(Br)n1 [compound 390] | – | 500 to 2800 | 500 to 2800 | 500 to 2800
21 | CCCNc1ccc(C(F)(F)F)c(C(=O)c2cccnc2N)n1 [compound 398] | – | 500 to 2800 | 500 to 2800 | 500 to 2800
22 | CC(C)C(CO)Nc1ccc(C(F)(F)F)c(C(=O)c2cccnc2N)n1 (centres unmarked) [compound 399] | – | 500 to 2800 | 500 to 2800 | 500 to 2800
23 | CC#Cc1ccc(N2CCN[C@@H](CC(C)C)C2)nc1C(=O)c1cccnc1N [compound 402] | 50 to 500 | – | < 50 | –
24 | NCCCOc1ccc(C(F)(F)F)c(C(=O)c2cccnc2N)n1 [compound 405] | – | 500 to 2800 | 500 to 2800 | 500 to 2800
25 | CC(C)C[C@H]1CN(c2ccc(C#CC3CC3)c(C(=O)c3cccnc3N)n2)CCN1 [compound 407] | – | 500 to 2800 | 500 to 2800 | 500 to 2800
26 | Nc1ncccc1C(=O)c1nc(N2CCNCC2)ccc1C#CC1CC1 [compound 409] | – | 500 to 2800 | 500 to 2800 | 500 to 2800
27 | Nc1ncccc1C(=O)c1nc(NC2CCCCC2N)ccc1C(F)(F)F (centres unmarked) [compound 414] | – | 500 to 2800 | 500 to 2800 | 500 to 2800
28 | Nc1ncccc1C(=O)c1nc(N2CCNCC2)ccc1Cc1ccccc1 [compound 417] | – | 500 to 2800 | 500 to 2800 | 500 to 2800
29 | Nc1ncccc1C(=O)c1nc(NCCCO)ccc1C(F)(F)F [compound 419] | – | 500 to 2800 | 500 to 2800 | 500 to 2800

Second part, the compound after the results:

Row | Ki (PKC theta [1]) [nM] | Ki (PKC delta kinase) [nM] | Ki (PKC alpha kinase) [nM] | Ki (PKC theta [2]) [nM] | SMILES
30 | < 50 | 50 to 500 | – | – | C=Cc1cnc(N)c(C(=O)c2cccc(N3CCCN(C(=O)CC(F)(F)F)CC3)n2)c1 [compound 107, 1-(4-(6-(2-amino-5-vinylnicotinoyl)pyridin-2-yl)-1,4-diazepan-1-yl)-3,3,3-trifluoropropan-1-one]
31 | 50 to 500 | – | – | – | C=Cc1cnc(N)c(C(=O)c2cccc(N3CCC(N)CC3)n2)c1 [compound 164]
32 | 50 to 500 | – | < 50 | – | Nc1ncc(-c2c[nH]c3ccccc23)cc1C(=O)c1cccc(N2CCCNCC2)n1 [compound 179]
33 | 50 to 500 | – | – | – | CC1CNCCN1c1cccc(C(=O)c2cccnc2N)n1 (centres unmarked) [compound 191]
34 | – | 500 to 2800 | 500 to 2800 | 500 to 2800 | Nc1ncccc1C(=O)c1ccn(C2CCCNCC2)n1 (centres unmarked) [compound 203]
35 | 50 to 500 | – | – | – | Nc1ncc(-c2c[nH]c3ccccc23)cc1C(=O)c1cncc(N2CCCNCC2)n1 [compound 213]
36 | 50 to 500 | – | – | – | Nc1ncccc1C(=O)c1cccc(N2CCNC(c3cccc(Cl)c3)C2)n1 (centres unmarked) [compound 301]
37 | – | 500 to 2800 | 500 to 2800 | 500 to 2800 | CC(C)(N)CNc1ccc(C(F)(F)F)c(C(=O)c2cccnc2N)n1 [compound 368]
38 | – | 500 to 2800 | 500 to 2800 | 500 to 2800 | CC(C)[C@H](CN)Nc1ccc(C(F)(F)F)c(C(=O)c2cccnc2N)n1 [compound 370]
39 | – | 500 to 2800 | 500 to 2800 | 500 to 2800 | CNCCNc1ccc(C(F)(F)F)c(C(=O)c2cccnc2N)n1 [compound 373]
40 | – | 500 to 2800 | 500 to 2800 | 500 to 2800 | NCCCCNc1ccc(C(F)(F)F)c(C(=O)c2cccnc2N)n1 [compound 374]
41 | – | 500 to 2800 | 500 to 2800 | 500 to 2800 | Nc1ncccc1C(=O)c1nc(NC2CCNC2)ccc1C(F)(F)F (centres unmarked) [compound 376]
42 | – | 500 to 2800 | 500 to 2800 | 500 to 2800 | NC(=O)CNc1ccc(C(F)(F)F)c(C(=O)c2cccnc2N)n1 [compound 386]
43 | – | 500 to 2800 | 500 to 2800 | 500 to 2800 | Cc1cc(Nc2ccc(C(F)(F)F)c(C(=O)c3cccnc3N)n2)[nH]n1 [compound 393]
44 | – | 500 to 2800 | 500 to 2800 | 500 to 2800 | Cc1cc(N)n(-c2ccc(C(F)(F)F)c(C(=O)c3cccnc3N)n2)n1 [compound 394]
45 | – | 500 to 2800 | 500 to 2800 | 500 to 2800 | Nc1ncccc1C(=O)c1nc(N2CCNC(c3ccccc3)C2)ccc1C#CC1CC1 (centres unmarked) [compound 408]
46 | – | 500 to 2800 | 500 to 2800 | 500 to 2800 | CC(C)C[C@H]1CN(c2ccc(-c3cnn(C)c3)c(C(=O)c3cccnc3N)n2)CCN1 [compound 420]

Reference: patent publication US20110077237A1, “KINASE INHIBITORS” (VERTEX PHARMACEUTICALS INCORPORATED, priority 2007, published 2011)
